These results are taken from patent US20250161273A1, “PHARMACEUTICAL COMPOSITION COMPRISING DIPHENYLDIAZOLE DERIVATIVES AND METHODS OF USE” (MODAG GMBH, priority 2022, published 2025).

Series [1] can be described thus: rat formulation study, PK after single oral administration. It is filed as in vivo. To be noted: Sprague-Dawley, plasma, male rats, 10 mg/kg single oral, read-out: Tmax, all four formulations. As for the experimental part: A rat study was undertaken to assess the pharmacokinetics of anle138b in male Sprague Dawley rats (n=3/arm) following single oral administration of different formulations of anle138b, as follows, in Table 5.
Male Sprague Dawley (SD) rats (n=3/formulation) sourced from Charles River Italia were kept for 5 days acclimatization. Feeding regimen was ad libitum except on the day of dosing when the food was supplied 4 hours post dosing, having been removed the evening beforehand. Animals were orally dosed with anle138b (10 mg/kg) formulated as above. An individual serial plasma profile was drawn from each animal over a period of 24 hours after dosing.
The dose formulations were administered orally via gastric gavage (2 ml/kg); any remaining formulation after dosing was discarded.
After oral administration, blood samples were collected from the tail vein of each rat at the time-points detailed: Pre dose, 0.5, 1, 2, 4, 6, 8 and 24 hours after dosing […]
PK profiling was performed by non-compartmental analysis using Phoenix™ WinNonlin. […] The maximum observed peak plasma concentration (Cmax) and the time at which it was observed (Tmax) were determined by inspection of the observed data.
The relative bioavailability ([…]) of anle138b between dose formulations was calculated by comparing systemic exposure (AUC0-t), and are reported rounded to at least 2 significant figures. […]

Series [2] is described as follows: phase 1 first-in-human trial, food effect study (FES) PK. It is filed as in vivo. To be noted: for AUC(0-t) / Cmax / half-life / Tmax: 150 mg; for half-life: read-out: T1/2 (geometric mean) (converted). The protocol: Anle138b was studied in a single-centre, double-blind, randomised, placebo-controlled single ascending dose (SAD) and multiple ascending dose (MAD) study in healthy subjects. Eligible participants were randomly assigned (1:1 for sentinel subjects and 1:5 for main group) to placebo or anle138b (dose ranging from 50 mg to 300 mg per day), respectively. In addition, the effect of food on the pharmacokinetics (PK) of anle138b in healthy subjects was examined at doses of 150 mg per day (FES, food effect study). Participants were randomized to treatment sequence (fed→fasted) or (fasted→fed). Treatment for the SAD, MAD and FES arms of the study was administered orally in hard gelatin capsules containing either 10 mg or 30 mg of anle138b with excipient (i.e., lauroyl polyoxyl-32 glycerides) or excipient only. The primary endpoints were safety and tolerability, the secondary endpoint was pharmacokinetics. Data from all randomized individuals were evaluated. [Clinicaltrials.gov-identifier: NCT04208152. EudraCT-number: 2019-004218-33]
This dose was administered either i) after a standard FDA-approved high-fat breakfast or ii) in the fasted state, i.e., fasted from all food and drink (except water) for a minimum of 8 h prior to dosing. In total, one cohort of 12 subjects was randomised in a 1:1 ratio to 2 treatment sequences (fed→fasted) or (fasted→fed). A minimum washout of at least 5 half-lives of anle138b between each dose was assured.
Secondary outcome measures were the oral PK of single (SAD) and multiple (MAD) ascending doses of anle138b in the fasted state as well as the effect of co-administration with food on the PK of anle138b. To this end PK blood samples were taken at day 1 (and for MAD day 7) pre-dose and at 0.5, 1, 1.5, 2, 3, 4, 6, 8, 10, 12, 16 and 20 h post-administration, at days 2 to 6 pre-dose only (MAD) and 24, 30, 36 and 48 h post final dose. Analysis of anle138b in plasma was done at Aptuit. Time point of last quantifiable data was seen to increase with an increase in dose as follows: SAD: from the 50 mg dose (subjects ranged between 8-24 h) to the 300 mg dose (subjects ranged between 36-48 h). MAD: from the 100 mg dose (subjects ranged between 8-36 h) to the 300 mg dose (subjects ranged between 20-48 h). In FES, subjects ranged between 24-48 h.
where μ=[…] is the intercept and β is the slope from the linear model. Using this model it is possible to estimate β (measure of dose proportionality) and obtain 90% confidence interval (CI) for β (Gough, 1995; Smith, 2000). The estimate of β together with its 90% CI (βI, βu) was used to quantify the degree of non-proportionality. In MAD, formal statistical analysis was performed on the PK parameters AUC0-tau and Cmax to assess dose accumulation. Log-transformed AUC0-tau and Cmax was subjected to a mixed-effects model with treatment (dose level), day (day 1 or 7) and treatment-by-day interaction as fixed effects and subject as a random effect. The adjusted means obtained from the model, including differences for each comparison of interest and the associated 90% CIs, was back-transformed on the log scale to obtain adjusted geometric means, adjusted geometric mean ratios (GMRs) and 90% CIs of the ratio. The GMRs and 90% CIs were provided for each treatment and overall, i.e., day 7/day 1. In the FES, formal statistical analysis was performed on the PK parameters Cmax, AUC0-last and AUC0-24 to assess the effects of food on anle138b. The PK parameters underwent a natural logarithmic transformation and were analysed using a mixed-effect model with terms for treatment (i.e., prandial state), period and sequence as fixed effects and subject nested within sequence as a random effect. Adjusted GMRs and 90% CIs for the adjusted GMRs for the comparison between fed and fasted states were provided where the ratios are defined as fed/fasted.

The conditions of series [3]: animal studies, cited from earlier work.

Structures are written as SMILES. Like-named read-outs stand apart in the source and are kept apart here.

As to `Brc1cccc(-c2cc(-c3ccc4c(c3)OCO4)n[nH]2)c1` [anle138b, 3-(1,3-benzodioxol-5-yl)-5-(3-bromophenyl)-1H-pyrazole], the Tmax in series [1] is 2 to 8 h; in series [2] (human, plasma, po, healthy volunteers, single oral 150 mg, fasted, read-out: Tmax (median)), 1.25 h; in series [2] (human, plasma, po, healthy volunteers, single oral 150 mg, fasted, read-out: Tmax (range)) it was 1 to 2 h; in series [2] (human, plasma, po, healthy volunteers, single oral 150 mg, fed (high-fat breakfast), read-out: Tmax (median)) it was 3 h; in series [2] (human, plasma, po, healthy volunteers, single oral 150 mg, fed (high-fat breakfast), read-out: Tmax (range)) it was 1.5 to 3 h. Also, the “effect of food on Cmax (in words)” value in series [2] (150 mg single dose, fed vs fasted) was “decreased by about half”. Moreover, the AUC(0-t) is 433 to 2720 ng·h/mL in series [2] (human, plasma, oral, 150 mg single dose, fasted, read-out: AUC0-24 range); 378 to 1920 ng·h/mL in series [2] (human, plasma, oral, 150 mg single dose, fed, read-out: AUC0-24 range); roughly 896 ng·h/mL in series [2] (human, plasma, po, healthy volunteers, single oral 150 mg, fasted, read-out: AUC(0-24) (geometric mean)); 888 ng·h/mL in series [2] (human, plasma, po, healthy volunteers, single oral 150 mg, fasted, read-out: AUC(0-last) (geometric mean)); roughly 641 ng·h/mL in series [2] (human, plasma, po, healthy volunteers, single oral 150 mg, fed, read-out: AUC(0-24) (geometric mean)); 668 ng·h/mL in series [2] (human, plasma, po, healthy volunteers, single oral 150 mg, fed, read-out: AUC(0-last) (geometric mean)). In addition, the Cmax in series [2] (human, plasma, oral, 150 mg single dose, fasted, read-out: Cmax range) is 225 to 1420 ng/mL; in series [2] (human, plasma, oral, 150 mg single dose, fed, read-out: Cmax range), 110 to 479 ng/mL; in series [2] (human, plasma, po, healthy volunteers, single oral 150 mg, fasted, read-out: Cmax (geometric mean)) it was roughly 442 ng/mL; in series [2] (human, plasma, po, healthy volunteers, single oral 150 mg, fed, read-out: Cmax (geometric mean)), roughly 196 ng/mL. For the same molecule, the bioavailability in series [2] (human, plasma, oral, 150 mg single dose, 90% CI: 61%, 84%, read-out: dose bioavailable in the fed state compared to the fasted state) is roughly 74%. The half-life is 11.3 h in series [2] (human, plasma, po, healthy volunteers, single oral 150 mg, fasted) and 15.2 h in series [2] (human, plasma, po, healthy volunteers, single oral 150 mg, fed). In series [2] (single dose, healthy subject), the “ratio of fasted AUC(0-24) to fed AUC(0-24)” value is “less than 1.5”. In addition, in series [3], the “oral bioavailability (in words)” value was “high oral bioavailability”. Further, the “levels in the brain relative to plasma” value in series [3] (oral) is reported as 5 fold.
